This is an account of results in paper PMC9874818 (Archiv Der Pharmazie, 2022).

This assay has as its system SARS‐CoV‐2 spike (delta/omicron variant) pseudotyped particle. Nature of the assay: microbe, parasite or virus in culture. Format: cell-based. The conditions noted are these: for pEC50: Severe acute respiratory syndrome coronavirus 2, A549-hACE2-TMPRSS2, read-out: EC50 SARS-CoV-2 entry inhibition.
Where [1] appears, read: Severe acute respiratory syndrome coronavirus 2, A549-hACE2-TMPRSS2, read-out: SARS-CoV-2 viral entry inhibition.

pEC50: −log10 of the molar value. Starred links: 1 amine or outer side, 2 acyl side, 3 side chain; linkers in the order of their positions; H or OH if unused. Residues, ends and D or L forms follow the SMILES beside them. CO = O=C([*:1])[*:2] Bounds are passed on as bounds.

One may read the pEC50 as the negative decadic logarithm of the EC50, by convention in mol/L. One may read the inhibition as the share of the control response that was lost under treatment.

Take `CN(C)C(=O)COC(=O)Cc1ccc(OC(=O)c2ccc(NC(=N)N)cc2)cc1` [camostat]: the pEC50 was 6.01. For the same compound, the inhibition at 50 µM under setting [1] was found to be 97%. Regarding `CN1C2CCC1CC(OC(c1ccc(F)cc1)c1ccc(F)cc1)C2` (stereo not shown) [AHN 1‐055, difluorobenztropine], the pEC50 is under 4.30. On to `CC(C)[C@H](NC(=O)[C@H](CCCNC(=N)N)NC(=O)N[C@@H](Cc1ccccc1)C(=O)O)C(=O)N[C@H](C=O)CCCNC(=N)N` [antipain, L‐Phe‐CO‐L‐Arg‐L‐Val‐L‐Arg‐H] ({Phe-CO}-Arg-Val-Arg-aldehyde), for which, under setting [1], the inhibition at 100 µM was 81%.
